According to patent US5179206A, “Substituted 3-aminosydnone imines” (Cassella Aktiengellschaft, priority 1989, dated 1993):
Where a name gives a salt, the structure may show the parent alone. Read-outs that look alike come from different tables or passages of the source.

System: pulmonary artery of the guinea pig (spiral strips)
Assay: Relaxant effect on potassium-depolarized, CaCl2-contracted spiral strips of the pulmonary artery of the guinea pig (modified method of Godfraind and Kaba and of Schuman et al)
Conditions: depolarized using 40 mmol/l of potassium, contraction induced by 0.5 mmol/l of CaCl2, average value of 4 to 6 vessel strips, read-out: IC50: concentration of the test substance which inhibits the contraction by 50%
Procedure: The pharmacological action of the compounds of the formula I was determined by a modified method of Godfraind and Kaba (Arch.Int. Pharmacodyn. Ther. 196, (Suppl.) 35 to 49, 1972) and of Schuman et al (Naunyn-Schmiedeberg's Arch. Pharmacol. 289, 409 to 418, 1975). In this connection, spiral strips of the pulmonary artery of the guinea pig are depolarized using 40 mmol/l of potassium after equilibration in calcium-free Tyrode solution. An addition of 0.5 mmol/l of CaCl2 then induces a contraction. The relaxant effect of the test substance is determined by cumulative addition in semilogarithmic graduated concentrations. The concentration of the test substance which inhibits the contraction by 50% (=IC50, mol/l) is determined from the concentration-effect curve (abscissa: -log mol/l of test substance, ordinate: % inhibition of the maximum contraction, average value of 4 to 6 vessel strips).

CCCCCCc1c(=N)o[n-][n+]1N1C(C)CCCC1C (stereo not shown) [Example 3, 3-(2,6-Dimethylpiperidino)-4-hexylsydnone imine hydrochloride] was tested. Which IC50 (Cavia porcellus) did it give?
Its IC50 is 2400 nM.

CC1CCCC(C)N1[n+]1[n-]oc(=N)c1Cc1ccccc1 (stereo not shown) [Example 6, 4-Benzyl-3-(2,6-dimethylpiperidino)sydnone imine hydrochloride] was tested. Which IC50 (Cavia porcellus) did it give?
The IC50 was 2300 nM.

CC1CCCC(C)N1[n+]1[n-]oc(=N)c1CCc1ccccc1 (stereo not shown) [Example 8, 3-(2,6-Dimethylpiperidino)-4-(2-phenylethyl)sydnone imine hydrochloride] was tested. Which IC50 (Cavia porcellus) did it give?
Its IC50 is 2000 nM.

With CCOC(=O)[N-]c1cn(N2CCOCC2)n[o+]1 [Molsidomine, N-ethoxycarbonyl-3-morpholino-sydnone imine, reference compound] as the molecule, how does the IC50 read?
Its IC50 is greater than 300000 nM.
